Here are results for 14 compounds from patent US6559164B1, “Substituted pyrroles suitable for continuous infusion” (Hoffmann-La Roche Inc., priority 1999, dated 2003).

Data set [1] in a line: Stability in solution for intravenous administration (release of 3-(1-methyl-3-indolyl)-4-(1-methyl-6-nitro-3-indolyl)-1H-pyrrole-2,5-dione). In kind it is physicochemical. Conditions: 72 hours at room temperature in a mixture of acetonitrile and saline or dextrose water; parent pyrrole-2,5-dione detected. As to the method: “Stability” is an overall assessment of the ability of a compound of formula I to withstand degradation in a typical solution used for the administration of drugs intravenously. Specifically, it refers to the ability of any given compound of formula I to release 3-(1-methyl-3-indolyl)-4-(1-methyl-6-nitro-3-indolyl)-1H-pyrrole-2,5-dione, over a 72 hour period in a mixture of acetonitrile and saline or dextrose water. The
“stability” of a compound of formula I is “very good” if the less than 1% 3-(1-Methyl-3-indolyl)-4-(1-methyl-6-nitro-3-indolyl)-1H-pyrrole-2,5-dione is detected, “good” if less than 2.5% 3-(1-Methyl-3-indolyl)-4-(1-methyl-6-nitro-3-indolyl)-1H-pyrrole-2,5-dione is detected, and “fair” if less than 5% 3-(1-Methyl-3-indolyl)-4-(1-methyl-6-nitro-3-indolyl)-1H-pyrrole-2,5-dione is detected after 72 hours incubation at room temperature.

Data set [2] can be described thus: Plasma conversion (degradation in plasma to the active metabolite). The class given is in vitro ADME. As to conditions: human or rodent plasma at 37° C., percent degradation. How it is done:
“Plasma conversion” with respect to compounds of formula I means the degradation (enzymatic and/or non-enzymatic) of such compound in human or rodent plasma at 37° C. from 30 minutes to 6 hours to give 3-(1-methyl-3-indolyl)-4-(1-methyl-6-nitro-3-indolyl)-1H-pyrrole-2,5-dione, a pharmaceutically active metabolite of compounds of formula I, as well as pharmaceutically active metabolites thereof. This conversion is typically given as the percent degradation over a specified time frame.

Counter-ions that a name gives are not always drawn.

Turning to `Cn1cc(C2=C(c3cn(C)c4cc([N+](=O)[O-])ccc34)C(=O)N(COC(=O)C3CCNCC3)C2=O)c2ccccc21` [Example 8a, piperidine-4-carboxylic acid 3-(1-methyl-1H-indol-3-yl)-4-(1-methyl-6-nitro-1H-indol-3-yl)-2,5-dioxo-2,5-dihydro-pyrrol-1-ylmethyl ester trifluoroacetate], in data set [1], the Stability entry is listed as “Good”. For the same compound, the “Plasma Conversion” value in data set [2] (@ 30 min) came out at 30% @ 30 min.
Consider `Cn1cc(C2=C(c3cn(C)c4cc([N+](=O)[O-])ccc34)C(=O)N(COC(=O)c3ccc(OP(=O)(O)O)cc3)C2=O)c2ccccc21` [Example 14, 4-Phosphonooxy-benzoic Acid 3-(1-Methyl-1H-indol-3-yl)-4-(1-methyl-6-nitro-1H-indol-3-yl)-2,5-dioxo-2,5-dihydro-pyrrol-1-ylmethyl Ester Monosodium Salt], for which the Stability result in data set [1] is recorded as “Good”. Moreover, in data set [2] (@ 4 hrs), the “Plasma Conversion” value came to 5% @ 4 hrs.
As to `CCCCCCC=CCCCCCCCC(=O)OCN1C(=O)C(c2cn(C)c3ccccc23)=C(c2cn(C)c3cc([N+](=O)[O-])ccc23)C1=O` [Example 3g, hexadec-9-enoic 3-(1-methyl-1H-indol-3-yl)-4-(1-methyl-6-nitro-1H-indol-3-yl)-2,5-dioxo-2,5-dihydro-pyrrol-1-ylmethyl ester], the Stability result in data set [1] is reported as “Good”.
With `Cn1cc(C2=C(c3cn(C)c4cc([N+](=O)[O-])ccc34)C(=O)N(COC(=O)c3cccnc3)C2=O)c2ccccc21` [Example 3a, nicotinic acid 3-(1-methyl-1H-indol-3-yl)-4-(1-methyl-6-nitro-1H-indol-3-yl)-2,5-dioxo-2,5-dihydro-pyrrol-1-ylmethyl ester], the Stability entry in data set [1] was “Good”. In addition, the “Plasma Conversion” value in data set [2] (@ 30 min) was determined as 70% @ 30 min.
Taken in the same sequence, the figures for `Cn1cc(C2=C(c3cn(C)c4cc([N+](=O)[O-])ccc34)C(=O)N(COC(=O)c3ccc[n+](C)c3)C2=O)c2ccccc21` [Example 12, 1-Methyl-3-[3-(1-methyl-1H-indol-3-yl)-4-(1-methyl-6-nitro-1H-indol-3-yl)-2,5-dioxo-2,5-dihydro-pyrrol-1-ylmethoxycarbonyl]-pyridinium; Trifluoroacetate] were “Fair” and 60% @ 30 min.
`Cn1cc(C2=C(c3cn(C)c4cc([N+](=O)[O-])ccc34)C(=O)N(COC(=O)CCC(=O)O)C2=O)c2ccccc21` [Example 3f, succinic acid mono-[3-(1-methyl-1H-indol-3-yl)-4-(1-methyl-6-nitro-1H-indol-3-yl)-2,5-dioxo-2,5-dihydro-pyrrol-1-ylmethyl] ester]: the Stability entry in data set [1] is reported as “Good”. Besides, in data set [2] (@ 30 min), the “Plasma Conversion” value is recorded as 20% @ 30 min.
As to `Cn1cc(C2=C(c3cn(C)c4cc([N+](=O)[O-])ccc34)C(=O)N(CO)C2=O)c2ccccc21`, the melting point – broadly, the temperature, or range, at which the solid turns liquid – was 209 to 211 °C.
For the compound `CCN(CC)CCNC(=O)N1C(=O)C(c2cn(C)c3ccccc23)=C(c2cn(C)c3cc([N+](=O)[O-])ccc23)C1=O` [Example 21, 3-(1-Methyl-1H-indol-3-yl)-4-(1-methyl-6-nitro-1H-indol-3-yl)-2,5-dioxo-2,5-dihydro-pyrrole-1-carboxylic Acid (2-Diethylamino-ethyl)-amide], in data set [1], the Stability result is listed as “Fair”. In addition, the “Plasma Conversion” value in data set [2] (@ 1 hr) was 100% @ 1 hr.
Regarding `Cn1cc(C2=C(c3cn(C)c4cc([N+](=O)[O-])ccc34)C(=O)N(COC(=O)Cc3ccncc3)C2=O)c2ccccc21` [Example 3c, pyridin-4-yl acetic acid 3-(1-methyl-1H-indol-3-yl)-4-(1-methyl-6-nitro-1H-indol-3-yl)-2,5-dioxo-2,5-dihydro-pyrrol-1-ylmethyl ester], in data set [1], the Stability entry is on record as “Good”. In data set [2] (@ 30 min), the “Plasma Conversion” value came out at 60% @ 30 min.
Take “[[3-(1-Methyl-1H-indol-3-yl)-4-(1-methyl-6-nitro-1H-indol-3-yl)-2,5-dioxo-2,5-dihydro-pyrrol-1-yl]methoxycarbonyl]-4-phenyl-O-methylpolyethylene Glycol 500 [Example 15]”: the Stability result in data set [1] is listed as “Good”. The “Plasma Conversion” value in data set [2] (@ 2 hrs) came to 100% @ 2 hrs.
For the compound `Cn1cc(C2=C(c3cn(C)c4cc([N+](=O)[O-])ccc34)C(=O)N(COC(=O)Cc3cccnc3)C2=O)c2ccccc21` [Example 3d, pyridin-3-yl acetic acid 3-(1-methyl-1H-indol-3-yl)-4-(1-methyl-6-nitro-1H-indol-3-yl)-2,5-dioxo-2,5-dihydro-pyrrol-1-ylmethyl ester], in data set [1], the Stability entry is reported as “Good”. In addition, the “Plasma Conversion” value in data set [2] (@ 30 min) was found to be 70% @ 30 min.
Take `Cn1cc(C2=C(c3cn(C)c4cc([N+](=O)[O-])ccc34)C(=O)N(COC(=O)NCCOP(=O)(O)O)C2=O)c2ccccc21` [Example 20, (2-Phosphonooxy-ethyl)-carbamic Acid 3-(1-Methyl-1H-indol-3-yl)-4-(1-methyl-6-nitro-1H-indol-3-yl)-2,5-dioxo-2,5-dihydro-pyrrol-1-ylmethyl Ester]: the Stability result in data set [1] is “Good”.
On to `Cn1cc(C2=C(c3cn(C)c4cc([N+](=O)[O-])ccc34)C(=O)N(COC(=O)COCCOCCOCCOCC(=O)O)C2=O)c2ccccc21` [Example 3h, [2-[2-(2-carboxymethoxy-ethoxy)-ethoxy]-ethoxy] acetic acid-3-(1-methyl-1H-indol-3-yl)-4-(1-methyl-6-nitro-1H-indol-3-yl)-2,5-dioxo-2,5-dihydro-pyrrol-1-ylmethyl ester], for which the Stability result in data set [1] is “Fair”.
For the compound `Cn1cc(C2=C(c3cn(C)c4cc([N+](=O)[O-])ccc34)C(=O)N(C(=O)NCCCCOP(=O)([O-])[O-])C2=O)c2ccccc21.[Na+].[Na+]` [Example 24, Phosphoric Acid Mono-(4-{[3-(1-methyl-1H-indol-3-yl)-4-(1-methyl-6-nitro-1H-indol-3-yl)-2,5-dioxo-2,5-dihydro-pyrrole-1-carbonyl]-amino}-butyl) Ester Sodium Salt], the Stability entry in data set [1] is recorded as “Good”. The “Plasma Conversion” value in data set [2] (@ 6 hrs) is 10% @ 6 hrs.
